Laboratory results as given in publication PMC8213057, “Targeting ALK2: An Open Science Approach to Developing Therapeutics for the Treatment of Diffuse Intrinsic Pontine Glioma” (Journal of Medicinal Chemistry, 2020).

Legend:
P38g = target: T1, P38g (Homo sapiens, UniProt P53778); details: 1 μM; Run 1, Run 2
T1 sequence (P53778 1-367): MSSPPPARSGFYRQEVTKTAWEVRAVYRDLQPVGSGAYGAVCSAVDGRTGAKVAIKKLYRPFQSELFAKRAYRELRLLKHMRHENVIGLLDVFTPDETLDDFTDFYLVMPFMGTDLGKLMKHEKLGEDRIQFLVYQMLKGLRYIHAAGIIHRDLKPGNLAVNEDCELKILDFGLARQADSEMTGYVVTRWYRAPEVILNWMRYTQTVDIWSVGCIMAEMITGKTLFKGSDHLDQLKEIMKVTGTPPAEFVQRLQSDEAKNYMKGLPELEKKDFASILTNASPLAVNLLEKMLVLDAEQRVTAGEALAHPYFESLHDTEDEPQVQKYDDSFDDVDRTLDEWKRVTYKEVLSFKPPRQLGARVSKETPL

CDK6/cyclin D3 = CDK6/cyclin D3 (Homo sapiens, UniProt Q00534); details: 1 μM; Run 1, Run 2
CDK16/cyclin Y (PCTAIRE) = CDK16/cyclin Y (PCTAIRE) (Homo sapiens, UniProt Q00536); details: 1 μM; Run 1, Run 2
HCK = HCK (Homo sapiens, UniProt P08631); details: 1 μM; Run 1, Run 2
IRAK1 = IRAK1 (Homo sapiens, UniProt P51617); details: 1 μM; Run 1, Run 2
TRKA = TRKA (Homo sapiens, UniProt P04629); test: biochemical; details: read-out: % enzyme activity, 1 μM; Run 1, Run 2
ASK1/MAP3K5 = target: T2, ASK1/MAP3K5 (Homo sapiens, UniProt Q99683); test: biochemical; details: read-out: % enzyme activity, 1 μM; Run 1, Run 2
T2 sequence (Q99683 1-1374): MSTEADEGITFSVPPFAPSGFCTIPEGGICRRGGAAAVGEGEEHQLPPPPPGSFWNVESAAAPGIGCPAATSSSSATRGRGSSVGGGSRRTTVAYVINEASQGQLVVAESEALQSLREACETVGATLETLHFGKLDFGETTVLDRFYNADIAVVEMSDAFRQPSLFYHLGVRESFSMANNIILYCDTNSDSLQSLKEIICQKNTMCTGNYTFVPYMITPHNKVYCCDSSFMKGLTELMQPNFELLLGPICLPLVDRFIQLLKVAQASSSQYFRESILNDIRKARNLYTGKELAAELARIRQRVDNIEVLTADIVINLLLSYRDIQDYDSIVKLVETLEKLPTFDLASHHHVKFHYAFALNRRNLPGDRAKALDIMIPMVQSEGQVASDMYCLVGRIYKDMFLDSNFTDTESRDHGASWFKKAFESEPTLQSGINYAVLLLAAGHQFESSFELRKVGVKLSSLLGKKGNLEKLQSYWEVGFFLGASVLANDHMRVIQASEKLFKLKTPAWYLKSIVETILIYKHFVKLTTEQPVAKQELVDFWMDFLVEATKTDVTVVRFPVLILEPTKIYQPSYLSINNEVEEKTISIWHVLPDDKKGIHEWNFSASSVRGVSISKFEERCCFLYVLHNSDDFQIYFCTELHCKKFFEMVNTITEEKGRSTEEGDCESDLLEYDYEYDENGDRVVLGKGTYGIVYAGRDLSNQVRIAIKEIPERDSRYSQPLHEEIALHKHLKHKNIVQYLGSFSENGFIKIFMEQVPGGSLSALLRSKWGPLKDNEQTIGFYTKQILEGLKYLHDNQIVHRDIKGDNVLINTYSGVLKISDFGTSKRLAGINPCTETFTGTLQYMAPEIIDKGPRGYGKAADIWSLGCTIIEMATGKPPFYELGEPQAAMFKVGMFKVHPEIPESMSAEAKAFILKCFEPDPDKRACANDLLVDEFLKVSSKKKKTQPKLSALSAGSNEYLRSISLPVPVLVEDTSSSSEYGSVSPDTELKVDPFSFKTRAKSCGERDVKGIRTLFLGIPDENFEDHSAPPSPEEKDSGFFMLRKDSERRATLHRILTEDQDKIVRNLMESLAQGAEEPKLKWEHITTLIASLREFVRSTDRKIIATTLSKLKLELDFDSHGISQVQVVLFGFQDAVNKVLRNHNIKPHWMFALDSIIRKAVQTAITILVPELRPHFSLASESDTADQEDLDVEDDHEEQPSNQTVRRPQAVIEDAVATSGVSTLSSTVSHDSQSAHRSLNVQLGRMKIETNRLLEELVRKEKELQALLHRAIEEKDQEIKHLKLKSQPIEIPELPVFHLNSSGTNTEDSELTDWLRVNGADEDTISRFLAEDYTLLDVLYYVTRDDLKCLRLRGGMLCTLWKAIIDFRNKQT

PKCnu/PRKD3 = target: T3, PKCnu/PRKD3 (Homo sapiens, UniProt O94806); details: 1 μM; Run 1, Run 2
T3 sequence (O94806 1-890): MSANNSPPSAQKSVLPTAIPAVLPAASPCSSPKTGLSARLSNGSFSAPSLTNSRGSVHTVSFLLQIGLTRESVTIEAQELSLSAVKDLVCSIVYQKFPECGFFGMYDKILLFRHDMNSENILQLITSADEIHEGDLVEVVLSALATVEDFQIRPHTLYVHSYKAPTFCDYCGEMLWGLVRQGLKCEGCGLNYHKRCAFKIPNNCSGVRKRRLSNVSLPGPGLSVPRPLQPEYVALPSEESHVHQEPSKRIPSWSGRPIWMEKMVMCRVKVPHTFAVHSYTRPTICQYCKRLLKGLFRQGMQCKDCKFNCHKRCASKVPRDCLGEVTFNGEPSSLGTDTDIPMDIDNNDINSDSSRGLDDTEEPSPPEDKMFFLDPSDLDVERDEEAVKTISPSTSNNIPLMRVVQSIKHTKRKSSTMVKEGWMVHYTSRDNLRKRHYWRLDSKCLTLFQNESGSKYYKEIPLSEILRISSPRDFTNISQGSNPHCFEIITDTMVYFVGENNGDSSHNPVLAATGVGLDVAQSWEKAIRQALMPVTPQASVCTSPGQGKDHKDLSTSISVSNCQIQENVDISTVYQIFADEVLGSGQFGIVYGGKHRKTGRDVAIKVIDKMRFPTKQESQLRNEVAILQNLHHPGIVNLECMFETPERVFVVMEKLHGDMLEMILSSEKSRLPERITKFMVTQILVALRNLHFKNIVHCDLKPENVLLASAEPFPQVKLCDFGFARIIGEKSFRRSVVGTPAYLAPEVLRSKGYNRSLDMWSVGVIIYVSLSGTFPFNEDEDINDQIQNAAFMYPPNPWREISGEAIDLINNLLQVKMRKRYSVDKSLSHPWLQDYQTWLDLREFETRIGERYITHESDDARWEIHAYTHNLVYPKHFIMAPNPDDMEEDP

Chain of CDK6/cyclin D3 (Q00534 whole entry): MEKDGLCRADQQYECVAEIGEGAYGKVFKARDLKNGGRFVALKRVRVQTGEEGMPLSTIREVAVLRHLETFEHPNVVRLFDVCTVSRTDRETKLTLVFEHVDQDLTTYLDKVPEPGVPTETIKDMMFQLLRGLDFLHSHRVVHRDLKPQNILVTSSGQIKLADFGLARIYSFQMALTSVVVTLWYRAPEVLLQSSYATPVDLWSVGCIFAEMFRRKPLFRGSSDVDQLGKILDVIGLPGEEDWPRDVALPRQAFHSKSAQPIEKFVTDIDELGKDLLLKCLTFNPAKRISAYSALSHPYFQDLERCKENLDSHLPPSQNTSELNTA
Chain of CDK6/cyclin D3 (P30281 whole entry partner): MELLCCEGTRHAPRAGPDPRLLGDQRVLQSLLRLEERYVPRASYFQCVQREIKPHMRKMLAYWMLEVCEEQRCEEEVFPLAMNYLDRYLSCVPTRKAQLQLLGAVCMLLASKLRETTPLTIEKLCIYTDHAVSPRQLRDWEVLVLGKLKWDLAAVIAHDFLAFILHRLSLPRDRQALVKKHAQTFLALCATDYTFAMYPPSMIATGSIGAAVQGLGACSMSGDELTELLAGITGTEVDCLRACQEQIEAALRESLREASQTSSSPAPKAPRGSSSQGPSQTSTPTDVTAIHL
Chain of TRKA (P04629 33-796): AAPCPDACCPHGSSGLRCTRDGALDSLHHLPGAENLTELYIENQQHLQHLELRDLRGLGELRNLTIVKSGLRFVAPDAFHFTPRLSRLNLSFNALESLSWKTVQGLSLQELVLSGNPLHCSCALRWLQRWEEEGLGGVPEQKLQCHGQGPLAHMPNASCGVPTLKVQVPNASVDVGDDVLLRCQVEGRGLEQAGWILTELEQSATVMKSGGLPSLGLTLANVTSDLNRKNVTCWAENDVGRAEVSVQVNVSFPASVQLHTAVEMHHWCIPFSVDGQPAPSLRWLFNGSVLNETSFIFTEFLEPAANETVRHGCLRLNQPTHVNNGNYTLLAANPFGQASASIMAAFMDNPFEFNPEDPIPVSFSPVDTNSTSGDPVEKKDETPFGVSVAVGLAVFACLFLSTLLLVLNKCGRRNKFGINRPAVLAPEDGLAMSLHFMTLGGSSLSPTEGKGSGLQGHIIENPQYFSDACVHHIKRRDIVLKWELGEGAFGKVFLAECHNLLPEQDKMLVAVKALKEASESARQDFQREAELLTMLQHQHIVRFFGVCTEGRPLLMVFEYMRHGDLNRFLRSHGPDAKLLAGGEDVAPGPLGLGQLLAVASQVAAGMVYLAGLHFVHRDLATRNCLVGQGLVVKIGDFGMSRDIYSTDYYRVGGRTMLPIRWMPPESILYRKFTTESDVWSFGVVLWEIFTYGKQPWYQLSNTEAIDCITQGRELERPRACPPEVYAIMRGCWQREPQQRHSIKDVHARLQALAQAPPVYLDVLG
Chain of IRAK1 (P51617 whole entry): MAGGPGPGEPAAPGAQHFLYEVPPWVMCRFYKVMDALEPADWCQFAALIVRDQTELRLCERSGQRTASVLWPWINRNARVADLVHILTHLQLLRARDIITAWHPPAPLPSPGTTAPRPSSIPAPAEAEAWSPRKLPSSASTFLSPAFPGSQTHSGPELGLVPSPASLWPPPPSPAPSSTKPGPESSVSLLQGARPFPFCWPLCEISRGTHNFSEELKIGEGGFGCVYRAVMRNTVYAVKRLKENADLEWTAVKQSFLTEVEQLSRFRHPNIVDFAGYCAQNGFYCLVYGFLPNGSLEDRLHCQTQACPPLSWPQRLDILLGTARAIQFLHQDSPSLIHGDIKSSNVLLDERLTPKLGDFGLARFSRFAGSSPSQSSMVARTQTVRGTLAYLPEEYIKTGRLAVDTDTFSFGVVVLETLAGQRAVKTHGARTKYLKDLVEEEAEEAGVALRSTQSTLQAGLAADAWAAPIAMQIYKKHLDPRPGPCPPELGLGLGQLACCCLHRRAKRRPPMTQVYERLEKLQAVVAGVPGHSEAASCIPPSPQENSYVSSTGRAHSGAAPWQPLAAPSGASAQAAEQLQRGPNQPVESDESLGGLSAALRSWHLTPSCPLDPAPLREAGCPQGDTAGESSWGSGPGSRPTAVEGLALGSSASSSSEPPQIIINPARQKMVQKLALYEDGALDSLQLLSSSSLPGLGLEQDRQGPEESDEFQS
Chain of HCK (P08631 whole entry): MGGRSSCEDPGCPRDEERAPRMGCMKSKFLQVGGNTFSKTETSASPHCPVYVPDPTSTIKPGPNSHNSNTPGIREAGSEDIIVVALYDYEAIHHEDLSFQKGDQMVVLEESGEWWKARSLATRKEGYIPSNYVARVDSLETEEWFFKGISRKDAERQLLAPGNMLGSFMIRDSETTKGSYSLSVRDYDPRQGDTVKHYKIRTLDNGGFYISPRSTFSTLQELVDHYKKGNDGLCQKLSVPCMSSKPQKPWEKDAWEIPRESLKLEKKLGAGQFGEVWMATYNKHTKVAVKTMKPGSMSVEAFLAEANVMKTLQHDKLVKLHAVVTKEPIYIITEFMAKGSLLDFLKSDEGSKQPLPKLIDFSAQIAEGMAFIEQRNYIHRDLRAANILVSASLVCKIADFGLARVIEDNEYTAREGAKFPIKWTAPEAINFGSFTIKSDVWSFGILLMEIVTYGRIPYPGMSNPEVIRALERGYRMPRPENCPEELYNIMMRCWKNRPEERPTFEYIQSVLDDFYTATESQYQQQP
Chain of CDK16/cyclin Y (PCTAIRE) (Q00536 whole entry): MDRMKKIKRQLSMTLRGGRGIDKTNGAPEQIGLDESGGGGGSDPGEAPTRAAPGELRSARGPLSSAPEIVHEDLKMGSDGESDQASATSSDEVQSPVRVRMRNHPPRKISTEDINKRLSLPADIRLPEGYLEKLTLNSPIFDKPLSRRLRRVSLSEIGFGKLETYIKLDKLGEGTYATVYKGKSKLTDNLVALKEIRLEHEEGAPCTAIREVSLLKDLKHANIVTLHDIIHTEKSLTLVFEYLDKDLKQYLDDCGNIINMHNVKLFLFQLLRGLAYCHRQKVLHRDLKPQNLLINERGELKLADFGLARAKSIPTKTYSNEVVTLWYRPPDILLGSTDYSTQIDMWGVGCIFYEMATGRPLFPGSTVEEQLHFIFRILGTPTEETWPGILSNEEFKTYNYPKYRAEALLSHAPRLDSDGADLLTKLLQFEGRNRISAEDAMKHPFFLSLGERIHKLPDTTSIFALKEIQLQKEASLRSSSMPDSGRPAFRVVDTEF
Chain of CDK16/cyclin Y (PCTAIRE) (Q8ND76 whole entry partner): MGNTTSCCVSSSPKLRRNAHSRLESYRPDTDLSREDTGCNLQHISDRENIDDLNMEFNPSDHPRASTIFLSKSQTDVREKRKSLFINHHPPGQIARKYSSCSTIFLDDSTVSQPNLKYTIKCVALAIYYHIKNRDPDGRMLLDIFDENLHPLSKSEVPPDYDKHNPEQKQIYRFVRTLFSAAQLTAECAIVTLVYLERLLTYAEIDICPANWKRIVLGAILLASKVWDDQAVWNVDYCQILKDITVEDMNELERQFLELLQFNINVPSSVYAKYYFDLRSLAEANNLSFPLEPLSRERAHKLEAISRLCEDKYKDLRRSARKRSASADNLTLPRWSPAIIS

Row | Compound | % enzyme activity (P38g) | % enzyme activity (CDK6/cyclin D3) | % enzyme activity (CDK16/cyclin Y (PCTAIRE)) | % enzyme activity (HCK) | % enzyme activity (IRAK1) | remaining activity at 1 µM (TRKA) | remaining activity at 1 µM (ASK1/MAP3K5) | % enzyme activity (PKCnu/PRKD3)
1 | COc1cc(-c2cncc(-c3ccc(N4CCN(C)CC4)cc3)c2C)cc(F)c1C(N)=O [Compound 26a, 2-Fluoro-6-methoxy-4-(4-methyl-5-(4-(4-methylpiperazin-1-yl)phenyl)pyridin-3-yl)benzamide] | 107.36% | 86.25% | 93.35% | 91.96% | 101.36% | 91.8% | 95.5% | 83.26%
2 | COc1cc(-c2cncc(-c3ccc(N4C[C@@H](C)N(C)[C@@H](C)C4)cc3)c2C)cc(F)c1C(N)=O [Compound 26c, 2-Fluoro-6-methoxy-4-(4-methyl-5-(4-((3R,5S)-3,4,5-trimethylpiperazin-1-yl)phenyl)pyridin-3-yl)benzamide] | 105.83% | 102.19% | 92.26% | 88.06% | 97.90% | 95.2% | 97.8% | 89.59%
